Measurements reported in patent US9518022B2, “Anti-HIV compounds” (priority 2014, dated 2016).

Assays:
[1] = system: HIV-1 NL4-3 viral clone engineered to express Renilla luciferase in place of Nef; test: microbe, parasite or virus in culture; assay type: cell-based; conditions: Human immunodeficiency virus 1, NL43, MT2, 96 h
Method: The present assay was used to screen candidate antiviral compounds by quantification of virus spread and production over several rounds of infection in vitro. MT-2, a HIV-1 permissive human T-cell line, was seeded in microtiter plates and was simultaneously treated with serially diluted compound and inoculated with a HIV-1 NL4-3 viral clone engineered to express Renilla luciferase in place of Nef. Following treatment, the culture was incubated for 96 hours. After the incubation, media was collected and used to estimate relative infectivity on the indicator cell line, TZM-bl. Additionally, viral spread was quantified by measuring luciferase activity via a commercially available luciferase substrate. In parallel, MT-2 cells were seeded and inoculated with mock virus in the presence of serially diluted compound. Compound toxicity was quantified 96 hours after treatment with AlamarBlue.
MT-2 (NIH Aids reagent program 237) cells were grown and maintained in an incubator at 37° C. with 5% CO2 using a basal medium of RPMI-1640 supplemented with 10% FBS. Cells were seeded in 100 μl at 2×10^4 cells/well in white walled 96-well microtiter plates. Candidate compounds were 3-fold serially diluted in the appropriate solvent. Solvent without compound was used as a no drug reference. Cells were inoculated at a multiplicity of 0.027 with an HIV-1 NL4-3 virus stock engineered to express Renilla luciferase in place of Nef. Diluted virus stock was first added to serially diluted compound. Compound and virus were delivered to cells in an equal volume (100 μl) and treated cultures were returned to the incubator for 96 hours. In parallel, plates for cytotoxicity estimates were prepared in the same way except cells were plated in clear walled 96-well microtiter plates and were mock infected.
At 96 hours post infection, 100 μl virus containing culture supernatant was collected from the treated and infected cultures and serially diluted in DMEM supplemented with 10% FBS, 1% sodium pyruvate, and 20 μg/ml DEAE dextran. One day prior, TZM-bl (ATCC PTA-5659) were cultured in basal medium of DMEM supplemented with 10% FBS and 1% sodium pyruvate and seeded at 7.5×10^3 cells/well in black walled 96-well microtiter plates. Diluted virus containing culture supernatant was transferred to TZM-bl cultures and incubated for 48 hours at 37° C. with 5% CO2. Infected TZM-bl cultures were fixed for 5 minutes with a 1% formaldehyde/0.2% gluteraldehyde/PBS solution then washed three times with PBS. Fixed cultures were incubated at 37° C. for 25 minutes with a 200 μg/ml MUG (4-Methylumbelliferyl β-D-[…])/DMEM solution. The reaction was stopped with an equal volume of 1M sodium carbonate and read at 360, 449 nm on fluorescence plate reader (Biotek).
At 96 hours post infection, 100 μl of culture supernatant was removed from the treated and infected cultures and EnduRen live cell substrate (Promega) was added at a final concentration 1.3 μg/ml. Cells were incubated for 1.5 hours at 37° C. with 5% CO2 then read on a luminescence plate reader (Biotek).
For all assays, data was imported into Accelrys Assay Explorer 3.3. In Assay Explorer, % inhibition (antiviral or cytotoxicity) was calculated using the solvent control as a reference by the following equation: 1−(SignalCompound/SignalReference). The % Inhibition and compound concentration data was fitted using the following 4-parameter logistic model (Assay Explorer model 42):
[formula] where X is compound concentration, Y is % inhibition, D is the maximum % Inhibition (constrained to 100%), C is IC50 value or inflection point, B is the hill slope, and A is the minimum % inhibition (constrained to 0%). The IC50 value is reported as the EC50 or CC50 depending on the assay endpoint. EC50 represents the effective concentration at which virus replication is inhibited by 50 percent. CC50 represents the concentration that results in the death of 50 percent of the host cells. […]

[2] = Cytotoxicity assay (AlamarBlue) in mock infected MT-2 cells; assay type: cell-based; conditions: human
How it was run: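 MT-2 cells at 2×10^4 cells/well, mock-infected, treated with 3-fold serial compound dilutions for 96 h at 37 °C. AlamarBlue added for 3 h, fluorescence read at 545/590 nm; % inhibition versus solvent control fitted to a 4-parameter logistic to give CC50.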

| SMILES | EC50 [1] | CC50 at 96 h [2] |
| --- | --- | --- |
| COc1cc2c(cc1OCc1ccccc1)CCNC2/C=C/c1ccc2cn[nH]c2c1 (stereo not drawn) [BT, 6-(benzyloxy)-1-[(E)-2-(1H-indazol-6-yl)ethenyl]-7-methoxy-1,2,3,4-tetrahydroisoquinoline] | 0.613 µM | 7.98 µM |
| COc1cc2c(cc1OCc1ccccc1)CCNC2/C=C/c1cccc2c1ccn2C(=O)OC(C)(C)C (stereo not drawn) [CK, tert-butyl 4-[(E)-2-[6-(benzyloxy)-7-methoxy-1,2,3,4-tetrahydroisoquinolin-1-yl]ethenyl]-1H-indole-1-carboxylate] | 0.805 µM | 5.99 µM |
| COc1cc2c(cc1OCc1ccccc1)CCNC2/C=C/c1cccc2[nH]ccc12 (stereo not drawn) [CL, 6-(benzyloxy)-1-[(E)-2-(1H-indol-4-yl)ethenyl]-7-methoxy-1,2,3,4-tetrahydroisoquinoline] | 1.5 µM | 7.2 µM |
| COc1cc2c(cc1OCc1ccccc1)CCNC2/C=C/c1ccc2c(ccn2C(=O)OC(C)(C)C)c1 (stereo not drawn) [CM, tert-butyl 5-[(E)-2-[6-(benzyloxy)-7-methoxy-1,2,3,4-tetrahydroisoquinolin-1-yl]ethenyl]-1H-indole-1-carboxylate] | 1.3 µM | 10 µM |
| COc1cc2c(cc1OCc1ccccc1)CCNC2/C=C/c1cccc2ccn(C(=O)OC(C)(C)C)c12 (stereo not drawn) [CN, tert-butyl 7-[(E)-2-[6-(benzyloxy)-7-methoxy-1,2,3,4-tetrahydroisoquinolin-1-yl]ethenyl]-1H-indole-1-carboxylate] | 1.83 µM | 19.6 µM |
| COc1cc2c(cc1OCc1ccccc1)CCNC2/C=C/c1ccc(F)c(O)c1F (stereo not drawn) [CO, 3-[(E)-2-[6-(benzyloxy)-7-methoxy-1,2,3,4-tetrahydroisoquinolin-1-yl]ethenyl]-2,6-difluorophenol] | 6 µM | 10 µM |
| COc1cc2c(cc1OCc1ccccc1)CCNC2/C=C/c1cccc(S(C)(=O)=O)c1 (stereo not drawn) [CP, 6-(benzyloxy)-1-[(E)-2-(3-methanesulfonylphenyl)ethenyl]-7-methoxy-1,2,3,4-tetrahydroisoquinoline] | 3.07 µM | 20.6 µM |
| COc1cc2c(cc1/C=C/C1NCCc3cc(OCc4ccccc4)c(OC)cc31)OCCO2 (stereo not drawn) [CQ, 6-(benzyloxy)-7-methoxy-1-[(E)-2-(7-methoxy-2,3-dihydro-1,4-benzodioxin-6-yl)ethenyl]-1,2,3,4-tetrahydroisoquinoline] | 0.06 µM | 1.4 µM |
| COc1cc2c(cc1/C=C/C1NCCc3cc(OCc4ccccc4)c(OC)cc31)OCO2 (stereo not drawn) [CR, 6-(benzyloxy)-7-methoxy-1-[(E)-2-(6-methoxy-2H-1,3-benzodioxol-5-yl)ethenyl]-1,2,3,4-tetrahydroisoquinoline] | 0.12 µM | 3.3 µM |
| COc1cc2c(cc1OCc1ccccc1)CCNC2/C=C/c1ccc2ccn(C(=O)OC(C)(C)C)c2c1 (stereo not drawn) [CS, tert-butyl 6-[(E)-2-[6-(benzyloxy)-7-methoxy-1,2,3,4-tetrahydroisoquinolin-1-yl]ethenyl]-1H-indole-1-carboxylate] | 0.912 µM | 6.15 µM |
| COc1cc(/C=C/C2NCCc3cc(OCc4ccccc4)c(OC)cc32)c(N(C)C)cc1OC (stereo not drawn) [CT, 2-[(E)-2-[6-(benzyloxy)-7-methoxy-1,2,3,4-tetrahydroisoquinolin-1-yl]ethenyl]-4,5-dimethoxy-N,N-dimethylaniline] | 0.2 µM | 8.9 µM |
| COc1cc2c(cc1OCc1ccccc1)CCNC2/C=C/c1cccnc1N(C)C (stereo not drawn) [CU, 3-[(E)-2-[6-(benzyloxy)-7-methoxy-1,2,3,4-tetrahydroisoquinolin-1-yl]ethenyl]-N,N-dimethylpyridin-2-amine] | 1.4 µM | 19.9 µM |
